Tests used:
Rattus norvegicus [1] = test: Antidiabetic activity against STZ-induced diabetic Sprague-Dawley rat model assessed as reduction in fasting blood glucose level at 100 mg/kg, IG administered once daily for 28 days; type: functional; parameters: scale not given: the % may be the effect or the level left; details: time 28 day
[2] = Inhibition of Wistar rat kidney ALR1 using sodium D-glucuronate as substrate preincubated for 10 mins in presence of NADPH followed by substrate addition and measured after 4 mins; type: tissue-based
[3] = Inhibition of Wistar rat lens ALR2 using D,L-glyceraldehyde as substrate preincubated for 10 mins in presence of NADPH followed by substrate addition and measured after 4 mins; type: tissue-based
Rattus norvegicus [4] = species on record: Rattus norvegicus; test: Selectivity index, ratio of IC50 for Wistar rat kidney ALR1 to IC50 for Wistar rat lens ALR2
[5] = Inhibition of Saccharomyces cerevisiae Alpha-glucosidase using p-nitrophenyl glucopyranoside as substrate preincubated for 5 mins followed by substrate addition and measured for 30 mins
Brain [6] = test: Antioxidant activity in rat brain homogenate assessed as inhibition of lipid peroxidation by measuring MDA concentration at 1 uM by TBARS assay relative to control; type: functional, tissue-based; parameters: scale not given: the % may be the effect or the level left
[7] = Antioxidant activity assessed as DPPH radical scavenging activity at 5 uM incubated for 30 mins by DPPH assay relative to control; type: functional
Brain [8] = test: Antioxidant activity in rat brain homogenate assessed as inhibition of lipid peroxidation by measuring MDA concentration at 100 uM by TBARS assay relative to control; type: functional, tissue-based; parameters: scale not given: the % may be the effect or the level left
[9] = Antioxidant activity assessed as DPPH radical scavenging activity at 1 uM incubated for 30 mins by DPPH assay relative to control; type: functional
Brain [10] = test: Antioxidant activity in rat brain homogenate assessed as inhibition of lipid peroxidation by measuring MDA concentration at 50 uM by TBARS assay relative to control; type: functional, tissue-based; parameters: scale not given: the % may be the effect or the level left
[11] = Antioxidant activity assessed as DPPH radical scavenging activity at 10 uM incubated for 30 mins by DPPH assay relative to control; type: functional
Brain [12] = test: Antioxidant activity in rat brain homogenate assessed as inhibition of lipid peroxidation by measuring MDA concentration at 10 uM relative to control; type: functional, tissue-based; parameters: scale not given: the % may be the effect or the level left
Brain [13] = test: Antioxidant activity in rat brain homogenate assessed as inhibition of lipid peroxidation by measuring MDA concentration at 5 uM by TBARS assay relative to control; type: functional, tissue-based; parameters: scale not given: the % may be the effect or the level left
[14] = Octanol/buffer distribution coefficient, log D of compound at pH 7.4 incubated for 24 hrs by shake flask based HPLC method; type: physicochemical
[15] = Antioxidant activity assessed as DPPH radical scavenging activity at 50 uM incubated for 30 mins by DPPH assay relative to control; type: functional
[16] = Antioxidant activity assessed as DPPH radical scavenging activity at 100 uM incubated for 30 mins by DPPH assay relative to control; type: functional
[17] = In vivo inhibition of ALR2 in STZ-induced diabetic Sprague-Dawley rat model assessed as reduction in ALR2 activity in lens at 80 mg/kg, IG administered once daily for 28 days relative to control; type: functional; parameters: scale not given: the % may be the effect or the level left; details: time 28 day
Rattus norvegicus [18] = test: Antidiabetic activity against STZ-induced diabetic Sprague-Dawley rat model assessed as reduction in fasting blood glucose level at 80 mg/kg, IG administered once daily for 28 days; type: functional; parameters: scale not given: the % may be the effect or the level left; details: time 28 day
Saccharomyces cerevisiae = test: Non competitive inhibition of Saccharomyces cerevisiae alpha-glucosidase using p-nitrophenyl glucopyranoside as substrate up to 200 uM by Lineweaver-Burk plot analysis
Rattus norvegicus [19] = species on record: Rattus norvegicus; test: Non competitive inhibition of Wistar rat lens ALR2 using D,L-glyceraldehyde as substrate up to 200 uM by Lineweaver-Burk plot analysis; type: tissue-based

| Structure (SMILES) | IC50 [2] [µM] | IC50 [3] [µM] | Ratio IC50 (Rattus norvegicus [4]) | IC50 [5] [µM] | Activity (Brain [8]) [%] | Activity (Brain [10]) [%] | Activity [11] [%] | further results |
| --- | --- | --- | --- | --- | --- | --- | --- | --- |
| CN(C)C(=N)NC(=N)N [METFORMIN] |  |  |  |  |  |  |  | Activity (Rattus norvegicus [1]): 38.5% |
| COc1ccc(/C=C/C(=O)c2cccc3[nH]c(=O)oc23)cc1 | > 100 | > 100 |  |  |  |  |  |  |
| O=C(/C=C/c1ccc(O)c(F)c1)c1cccc2[nH]c(=O)oc12 | 3.75 | 3.74 | 1.19 | 105 |  |  |  |  |
| Cc1c(C)c2c(c(C)c1O)CCC(C)(C(=O)O)O2 (centres undefined) |  |  |  |  | 79.2 | 47.5 | 86.3 | Activity (Brain [6]): 3.39%; Activity [7]: 46.7%; Activity [9]: 8.63%; Activity (Brain [12]): 31.9%; Activity (Brain [13]): 15.5% |
| COC(=O)Cn1c(=O)oc2c(C(=O)/C=C/c3ccc(O)c(Cl)c3)cccc21 | > 100 | 12.2 | > 8.82 |  |  |  |  |  |
| COc1cc(/C=C/C(=O)c2cccc3[nH]c(=O)oc23)ccc1O | > 100 | > 100 |  |  |  |  |  |  |
| COC(=O)Cn1c(=O)oc2c(C(=O)/C=C/c3ccc(O)c(C(F)(F)F)c3)cccc21 | > 100 | 56.1 | > 1.78 |  |  |  |  |  |
| COC(=O)Cn1c(=O)oc2c(/C=C/c3ccc(O)cc3)cccc21 |  | 11.7 |  |  |  |  |  |  |
| COC(=O)Cn1c(=O)oc2c(C(=O)/C=C/c3ccc(OC)cc3)cccc21 | > 100 | > 100 |  |  |  |  |  |  |
| COC(=O)Cn1c(=O)oc2c(C(=O)/C=C/c3ccc(O)c(F)c3)cccc21 | > 100 | 0.518 | > 193 | 57.2 | 40.1 | 25.4 | 5.09 | logD at 24 h [14]: 1.31; Activity [15]: 19.2%; Activity [16]: 40.1% |
| CC(/C=C1\SC(=S)N(CC(=O)O)C1=O)=C\c1ccccc1 | 5.29 | 0.119 | 44.5 |  |  |  |  | Activity [17]: 62.1%; logD at 24 h [14]: 0.21; Activity (Rattus norvegicus [18]): 20.9% |
| CC(C)=CCn1c(=O)oc2c(C(=O)/C=C/c3ccc(O)c(F)c3)cccc21 | > 100 | 0.517 | > 193 | 52.1 | 33.3 | 22.4 | 12.7 | logD at 24 h [14]: 1.64; Activity [15]: 32.5%; Activity [16]: 53.8% |
| O=C(/C=C/c1ccc(O)c(Cl)c1)c1cccc2[nH]c(=O)oc12 | > 100 | > 100 |  |  |  |  |  |  |
| CC(C)=CCn1c(=O)oc2c(C(=O)/C=C/c3ccc(O)cc3)cccc21 | > 100 | 0.201 | > 498 | 41.5 | 38.7 | 27 | 7.1 | logD at 24 h [14]: 1.65; Activity [15]: 18.3%; Activity [16]: 39.1% |
| COC(=O)Cn1c(=O)oc2cc(/C=C/c3ccc(O)cc3)ccc21 |  | 72.2 |  |  |  |  |  |  |
| CC(C)=CCn1c(=O)oc2c(C(=O)/C=C/c3cc(F)c(O)c(F)c3)cccc21 | 4.75 | 0.097 | 49 | 59.9 | 38.3 | 25.9 | 9.1 | logD at 24 h [14]: 1.13; Activity [15]: 35%; Activity [16]: 52.9% |
| O=C(/C=C/c1ccc(O)c(O)c1)c1cccc2[nH]c(=O)oc12 | 2.12 | 3.54 | 0.595 | 63.7 |  |  |  |  |
| COC(=O)Cn1c(=O)oc2c(C(=O)/C=C/c3cccc(O)c3)cccc21 | > 100 | > 100 |  |  |  |  |  |  |
| CC(C)=CCCn1c(=O)oc2c(C(=O)/C=C/c3ccc(O)c(O)c3)cccc21 | 10.3 | 0.13 | 79.3 | 4.13 | 96.4 | 92.5 | 94.4 | Activity (Brain [6]): 34.2%; Km (Saccharomyces cerevisiae): 449 µM; Activity [7]: 89.8%; Activity [9]: 44.7%; logD at 24 h [14]: 1.04; Activity [15]: 97%; Km (Rattus norvegicus [19]): 585 µM; Activity (Brain [12]): 73%; Activity (Brain [13]): 63.2%; Activity [16]: 98.5% |
| COC(=O)Cn1c(=O)oc2c(C(=O)/C=C/c3ccc(O)c(OC)c3)cccc21 | > 100 | 13.2 | > 7.59 |  | 66.1 | 43 | 50.3 | Activity [7]: 25.4%; Activity [9]: 14.8%; Activity [15]: 82.2%; Activity (Brain [12]): 23.6%; Activity [16]: 92.4% |
| O=C(/C=C/c1ccc(O)cc1)c1cccc2[nH]c(=O)oc12 | > 100 | 2.85 | > 35.1 | 104 |  |  |  |  |
| COC(=O)Cn1c(=O)oc2c(C(=O)/C=C/c3cc(F)c(O)c(F)c3)cccc21 | 7.84 | 0.111 | 70.7 | 71.2 | 28 | 20.9 | 9.1 | logD at 24 h [14]: 1.07; Activity [15]: 35%; Activity [16]: 52.9% |
| O=c1[nH]c2cccc(/C=C/c3ccc(O)cc3)c2o1 |  | 495 |  |  |  |  |  |  |
| O=C(/C=C/c1cccc(O)c1)c1cccc2[nH]c(=O)oc12 | > 100 | > 100 |  |  |  |  |  |  |
| COC(=O)Cn1c(=O)oc2c(C(=O)/C=C/c3ccc(O)cc3)cccc21 | > 100 | 0.226 | > 415 | 55.4 | 38 | 24.1 | 10.6 | logD at 24 h [14]: 1.46; Activity [15]: 30%; Activity [16]: 46.3% |
| COc1cc(O)ccc1/C=C/C(=O)c1cccc2[nH]c(=O)oc12 | > 100 | 16.7 | > 5.98 |  |  |  |  |  |
| O=C(/C=C/c1cc(F)c(O)c(F)c1)c1cccc2[nH]c(=O)oc12 | 1.41 | 0.491 | 2.87 | 107 |  |  |  |  |
| COC(=O)Cn1c(=O)oc2ccc(/C=C/c3ccc(O)cc3)cc21 |  | > 100 |  |  |  |  |  |  |
| O=C(/C=C/c1ccc(O)c(C(F)(F)F)c1)c1cccc2[nH]c(=O)oc12 | > 100 | > 100 |  |  |  |  |  |  |
| COC(=O)Cn1c(=O)oc2c(C(=O)/C=C/c3ccc(O)cc3OC)cccc21 | > 100 | 0.826 | > 121 |  |  |  |  |  |

Source: ChEMBL document CHEMBL5143721, “Novel Hydroxychalcone-Based Dual Inhibitors of Aldose Reductase and α-Glucosidase as Potential Therapeutic Agents against Diabetes Mellitus and Its Complications” (J Med Chem, 2022)
